Laboratory results taken from patent publication US20260297109A1, “COMPOUNDS AS SUMO ACTIVATING ENZYME INHIBITORS” (WIGEN BIOMEDICINE TECHNOLOGY (SHANGHAI) CO., LTD., priority 2022, published 2026).

target: T1, SAE (Homo sapiens, UniProt Q9UBT2); assay: SUMO IF: in vitro inhibitory activity assay against SAE in HCT116 cells (SUMO-2/3 immunofluorescence); type: cell-based; conditions: class symbols, 6 h at 37° C.
T1 construct: endogenous in cells; host or cells: HCT116
T1 sequence (Q9UBT2 1-640): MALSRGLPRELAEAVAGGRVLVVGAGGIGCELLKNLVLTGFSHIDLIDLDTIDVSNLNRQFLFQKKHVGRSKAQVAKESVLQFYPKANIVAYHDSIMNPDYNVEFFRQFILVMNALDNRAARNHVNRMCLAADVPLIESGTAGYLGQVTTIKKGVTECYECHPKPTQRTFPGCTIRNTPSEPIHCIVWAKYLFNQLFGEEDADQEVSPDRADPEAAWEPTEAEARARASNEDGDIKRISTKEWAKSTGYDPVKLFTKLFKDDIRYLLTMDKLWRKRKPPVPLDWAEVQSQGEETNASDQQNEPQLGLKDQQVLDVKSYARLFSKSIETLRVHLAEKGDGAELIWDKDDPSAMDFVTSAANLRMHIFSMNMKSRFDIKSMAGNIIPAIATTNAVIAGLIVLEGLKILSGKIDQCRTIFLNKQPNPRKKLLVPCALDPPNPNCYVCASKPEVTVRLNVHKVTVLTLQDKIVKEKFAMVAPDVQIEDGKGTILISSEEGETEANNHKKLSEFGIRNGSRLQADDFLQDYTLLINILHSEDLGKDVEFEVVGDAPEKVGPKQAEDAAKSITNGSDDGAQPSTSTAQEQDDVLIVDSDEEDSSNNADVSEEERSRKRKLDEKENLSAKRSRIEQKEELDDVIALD
T1 sequence (Q9UBE0 1-346): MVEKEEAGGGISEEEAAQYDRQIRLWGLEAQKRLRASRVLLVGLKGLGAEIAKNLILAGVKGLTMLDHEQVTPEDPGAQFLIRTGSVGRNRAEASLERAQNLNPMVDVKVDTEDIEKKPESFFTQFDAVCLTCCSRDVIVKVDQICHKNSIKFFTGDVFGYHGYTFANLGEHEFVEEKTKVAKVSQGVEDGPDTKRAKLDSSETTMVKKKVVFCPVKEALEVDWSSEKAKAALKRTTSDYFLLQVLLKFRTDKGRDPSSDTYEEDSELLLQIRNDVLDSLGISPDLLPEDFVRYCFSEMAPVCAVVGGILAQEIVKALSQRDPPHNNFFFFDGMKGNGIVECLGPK
Outline: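 HCT116 cells were treated with compound for 6 h at 37 °C, then PFA-fixed, Triton-permeabilised and BSA-blocked. They were stained overnight at 4 °C with anti-SUMO-2/3 (18H8) rabbit mAb (1:400), then with FITC anti-rabbit IgG (1:300). Fluorescence versus DMSO gave inhibition rate and IC50.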

Row | Compound | IC50 [nM]
1 | CC1=C[C@@]2(NCCc3ccc(F)cc32)c2cc(C(=O)c3cncnc3N[C@H]3C[C@H](O)[C@@H](COS(N)(=O)=O)[C@@H]3F)sc21 [Compound 622] | > 200
2 | NS(=O)(=O)OC[C@H]1[C@H](F)[C@@H](Nc2ncncc2C(=O)c2cc3c(s2)CC[C@@]32OCCc3ccccc32)C[C@@H]1O [Compound 745] | > 200
3 | Cc1sc(C(=O)c2cncnc2N[C@H]2C[C@H](O)[C@@H](COS(N)(=O)=O)[C@@H]2F)cc1C1NCc2ccc(Cl)cc21 (stereo partly shown) [Compound 257] | > 200
4 | NS(=O)(=O)OC[C@H]1[C@H](F)[C@@H](Nc2ncncc2C(=O)c2nc3c(s2)CSC[C@]32NCCc3ccc(Cl)cc32)C[C@@H]1O [Compound 593] | 50 to 200
5 | NS(=O)(=O)OC[C@H]1[C@H](F)[C@@H](Nc2ncncc2C(=O)c2cc3c(s2)C=C[C@@]32OCCc3ccc(F)cc32)C[C@@H]1O [Compound 757] | > 200
6 | NS(=O)(=O)OC[C@H]1[C@H](F)[C@@H](Nc2ncncc2C(=O)c2cc3c(s2)CCC32NCCc3ccc(C4CC4)cc32)C[C@@H]1O (stereo partly shown) [Compound 149] | 50 to 200
7 | NS(=O)(=O)OC[C@H]1[C@H](F)[C@@H](Nc2ncncc2C(=O)c2cc3c(s2)CCC[C@]32OCCc3ccc(Cl)cc32)C[C@@H]1O [Compound 686] | ≤ 50
8 | CN1Cc2sc(C(=O)c3cncnc3N[C@H]3C[C@H](O)[C@@H](COS(N)(=O)=O)[C@@H]3F)cc2[C@]2(C1)OCCc1ccc(Cl)cc12 [Compound 725] | ≤ 50
9 | N#Cc1cc2c(cc1Cl)C1(CCCc3sc(C(=O)c4cncnc4N[C@H]4C[C@H](O)[C@@H](COS(N)(=O)=O)[C@@H]4F)cc31)NCC2 (stereo partly shown) [Compound 114] | 50 to 200
10 | NS(=O)(=O)OC[C@H]1[C@H](F)[C@@H](Nc2ncncc2C(=O)c2cc3c(s2)CSC[C@@]32NCCc3ncc(Cl)cc32)C[C@@H]1O [Compound 613] | > 200
11 | Cc1sc(C(=O)c2cncnc2N[C@H]2C[C@H](O)[C@@H](CCS(N)(=O)=O)[C@@H]2F)cc1C1NCCc2ccc(Cl)cc21 (stereo partly shown) [Compound 990] | > 200
12 | NS(=O)(=O)OC[C@H]1[C@H](F)[C@@H](Nc2ncncc2C(=O)c2cc3c(s2)CCC[C@]32OCCc3ccc(F)cc32)C[C@@H]1O [Compound 713] | ≤ 50
13 | NS(=O)(=O)OC[C@H]1[C@H](F)[C@@H](Nc2ncncc2C(=O)c2cc3c(s2)CCCC32NCCc3ccccc32)C[C@@H]1O (stereo partly shown) [Compound 85] | 50 to 200
14 | NS(=O)(=O)OC[C@H]1[C@H](F)[C@@H](Nc2ncncc2C(=O)c2cc3c(s2)C=C[C@@]32OCCc3ccccc32)C[C@@H]1O [Compound 754] | > 200
15 | NS(=O)(=O)OC[C@H]1[C@H](F)[C@@H](Nc2ncncc2C(=O)c2cc3c(s2)CCC[C@@]32OCCc3ccccc32)C[C@@H]1O [Compound 709] | > 200
16 | NS(=O)(=O)OC[C@H]1[C@H](F)[C@@H](Nc2ncncc2C(=O)c2cc3c(s2)CCCC32NCCc3ncc(Cl)cc32)C[C@@H]1O (stereo partly shown) [Compound 603] | 50 to 200
17 | NS(=O)(=O)OC[C@H]1[C@H](F)[C@@H](Nc2ncncc2C(=O)c2cc3c(s2)C(F)(F)C[C@@]32NCCc3ccc(F)cc32)C[C@@H]1O [Compound 625] | > 200
18 | NS(=O)(=O)OC[C@H]1[C@H](F)[C@@H](Nc2ncncc2C(=O)c2cc([C@@H]3NCCc4ccc(Cl)cc43)c(C3CC3)s2)C[C@@H]1O [Compound 985] | 50 to 200
19 | NS(=O)(=O)OC[C@H]1[C@H](F)[C@@H](Nc2ncncc2C(=O)c2cc3c(s2)CN(C2CC2)C[C@]32OCCc3ccc(F)cc32)C[C@@H]1O [Compound 740] | ≤ 50
20 | N#Cc1ccc2c(c1)C1(CCc3sc(C(=O)c4cncnc4N[C@H]4C[C@H](O)[C@@H](COS(N)(=O)=O)[C@@H]4F)cc31)NCC2 (stereo partly shown) [Compound 136] | 50 to 200
21 | N#Cc1ccc2c(c1)[C@@]1(CCCc3sc(C(=O)c4cncnc4N[C@H]4C[C@H](O)[C@@H](COS(N)(=O)=O)[C@@H]4F)cc31)OCC2 [Compound 716] | ≤ 50
22 | CC(C)N1Cc2sc(C(=O)c3cncnc3N[C@H]3C[C@H](O)[C@@H](COS(N)(=O)=O)[C@@H]3F)cc2C2(C1)NCCc1ccc(Cl)cc12 (stereo partly shown) [Compound 648] | ≤ 50
23 | NS(=O)(=O)CC[C@H]1[C@H](F)[C@@H](Nc2ncncc2C(=O)c2cc3c(s2)CCC[C@]32NCCc3ccc(Cl)cc32)C[C@@H]1O [Compound 638] | 50 to 200

Row | Compound | IC50 [nM]
24 | CC1=C[C@]2(NCCc3ccc(F)cc32)c2cc(C(=O)c3cncnc3N[C@H]3C[C@H](O)[C@@H](COS(N)(=O)=O)[C@@H]3F)sc21 [Compound 623] | 50 to 200
25 | NS(=O)(=O)OC[C@H]1[C@H](F)[C@@H](Nc2ncncc2C(=O)c2cc3c(s2)CN(C2CC2)CC32OCCc3ccc(F)cc32)C[C@@H]1O (stereo partly shown) [Compound 738] | 50 to 200
26 | NS(=O)(=O)OC[C@H]1[C@H](F)[C@@H](Nc2ncncc2C(=O)c2cc3c(s2)CCC[C@]32NCCc3ccccc32)C[C@@H]1O [Compound 87] | ≤ 50
27 | N#Cc1ccc2c(c1)C1(CCc3sc(C(=O)c4cncnc4N[C@H]4C[C@H](O)[C@@H](COS(N)(=O)=O)[C@@H]4F)cc31)OCC2 (stereo partly shown) [Compound 750] | 50 to 200
28 | NS(=O)(=O)OC[C@H]1[C@H](F)[C@@H](Nc2ncncc2C(=O)c2cc3c(s2)COCC32NCCc3ccccc32)C[C@@H]1O (stereo partly shown) [Compound 97] | > 200
29 | N#Cc1cc2c(cc1Cl)C1(CCc3sc(C(=O)c4cncnc4N[C@H]4C[C@H](O)[C@@H](COS(N)(=O)=O)[C@@H]4F)cc31)NCC2 (stereo partly shown) [Compound 156] | 50 to 200
30 | NS(=O)(=O)OC[C@H]1[C@H](F)[C@@H](Nc2ncncc2C(=O)c2cc3c(s2)CCC32NCCc3ccccc32)C[C@@H]1O (stereo partly shown) [Compound 127] | > 200
31 | NS(=O)(=O)OC[C@H]1[C@H](F)[C@@H](Nc2ncncc2C(=O)c2cc3c(s2)CSCC32NCCc3ccccc32)C[C@@H]1O (stereo partly shown) [Compound 294] | > 200
32 | NS(=O)(=O)OC[C@H]1[C@H](F)[C@@H](Nc2ncncc2C(=O)c2cc3c(s2)CCC32NCC(=O)c3ccc(Cl)cc32)C[C@@H]1O (stereo partly shown) [Compound 167] | 50 to 200
33 | CC1CN[C@]2(C=Cc3sc(C(=O)c4cncnc4N[C@H]4C[C@H](O)[C@@H](COS(N)(=O)=O)[C@@H]4F)cc32)c2cc(Cl)ccc21 (stereo partly shown) [Compound 1055] | ≤ 50
34 | NS(=O)(=O)OC[C@H]1[C@H](F)[C@@H](Nc2ncncc2C(=O)c2cc3c(s2)CSC[C@]32NCCc3cnc(Cl)cc32)C[C@@H]1O [Compound 608] | ≤ 50
35 | NS(=O)(=O)OC[C@H]1[C@H](F)[C@@H](Nc2ncncc2C(=O)c2cc3c(s2)COCC32NCCc3ccc(Cl)c(Cl)c32)C[C@@H]1O (stereo partly shown) [Compound 558] | 50 to 200
36 | NS(=O)(=O)OC[C@H]1[C@H](F)[C@@H](Nc2ncncc2C(=O)c2cc3c(s2)CCC[C@]32NCCc3cnc(Cl)cc32)C[C@@H]1O [Compound 599] | ≤ 50
37 | C=Cc1sc(C(=O)c2cncnc2N[C@H]2C[C@H](O)[C@@H](COS(N)(=O)=O)[C@@H]2F)cc1C1NCCc2ccc(Cl)cc21 (stereo partly shown) [Compound 261] | 50 to 200
38 | NS(=O)(=O)OC[C@H]1[C@H](F)[C@@H](Nc2ncncc2C(=O)c2nc3c(s2)COC[C@]32NCCc3ccc(Cl)cc32)C[C@@H]1O [Compound 590] | > 200
39 | NS(=O)(=O)OC[C@H]1[C@H](F)[C@@H](Nc2ncncc2C(=O)c2cc3c(s2)CC[C@]32NCCc3cc(F)c(Cl)cc32)C[C@@H]1O [Compound 692] | ≤ 50
40 | COc1ccc2c(c1)[C@@]1(CCc3sc(C(=O)c4cncnc4N[C@H]4C[C@H](O)[C@@H](COS(N)(=O)=O)[C@@H]4F)cc31)NCC2 [Compound 689] | 50 to 200
41 | NS(=O)(=O)OC[C@H]1[C@H](F)[C@@H](Nc2ncncc2C(=O)c2cc3c(s2)CCC[C@]32OCCc3ccccc32)C[C@@H]1O [Compound 710] | 50 to 200
42 | NS(=O)(=O)OC[C@H]1[C@H](F)[C@@H](Nc2ncncc2C(=O)c2cc3c(s2)CCCC32OCCc3ccc(Cl)cc32)C[C@@H]1O (stereo partly shown) [Compound 126] | ≤ 50
43 | NS(=O)(=O)OC[C@H]1[C@H](F)[C@@H](Nc2ncncc2C(=O)c2cc3c(s2)CCCC32NC3(CC3)Cc3ccc(Cl)cc32)C[C@@H]1O (stereo partly shown) [Compound 124] | 50 to 200
44 | NS(=O)(=O)OC[C@H]1[C@H](F)[C@@H](Nc2ncncc2C(=O)c2cc3c(s2)COCC32NCCc3ccc(Cl)c(F)c32)C[C@@H]1O (stereo partly shown) [Compound 567] | 50 to 200
45 | NS(=O)(=O)OC[C@H]1[C@H](F)[C@@H](Nc2ncncc2C(=O)c2nc3c(s2)CCCC32NCCc3ccc(Cl)cc32)C[C@@H]1O (stereo partly shown) [Compound 585] | > 200
46 | NS(=O)(=O)OC[C@H]1[C@H](F)[C@@H](Nc2ncncc2C(=O)c2cc3c(s2)CC=CC32NCCc3ccc(Cl)cc32)C[C@@H]1O (stereo partly shown) [Compound 121] | ≤ 50
